Results on 30 compounds are retold here after patent US10793535B2, “Heterocyclic glutaminase inhibitors” (Calithera Biosciences, Inc., priority 2012, dated 2020).

In general, IC50 refers to the concentration needed to halve the response being measured. As usually defined, the Cmax is the peak of the concentration-time curve. By Tmax is commonly meant the time at which the peak concentration occurs.

Like-named read-outs stand apart in the source and are kept apart here.

The test system of one series is Caco-2 cell monolayers. Put plainly: Caco-2 permeability assay. Type of series: in vitro ADME, human. The text has this: Caco-2 cells are commonly used in a confluent monolayer on a cell culture insert filter. When cultured in this format and under specific conditions, the cells become differentiated and polarized such that their phenotype, morphologically and functionally resembles the enterocytes lining the small intestine. The cell monolayer provides a physical and biochemical barrier to the passage of small molecules, and is widely used across the pharmaceutical industry as an in vitro model of the human small intestinal mucosa to predict the absorption of orally administered drugs (Hidalgo et al., Gastroenterology, 1989; Artursson, J. Pharm. Sci., 1990). The correlation between the in vitro apparent permeability (P ? app) across Caco-2 monolayers and the in vivo absorption is well established (Artursson et al., Biochem. Biophys. Res. Comm., 1991).
The present assay was used to determine the bidirectional permeability of the compounds of the invention through Caco-2 cell monolayers. Caco-2 cells were grown in confluent monolayers where the media of both the apical (A) and basolateral (B) sides were at pH 7.4. Compounds were dosed at 1 μM in the presence of 200 μM Lucifer Yellow, on the apical side (A→B) or the basolateral side (B→A) for assessment, in duplicate.
The absorption potential of compounds were classified as either Low (P-app<1×10^−6 cm/s) or High (P-app>1×10^−6 cm/s).

Another series has as its system P493-6 (myc "on") cells. Put plainly: Cell proliferation assay. The conditions noted are these: read-out: Cell prolif P493 72 h IC50. Type of series: cell-based. As to the method: P493-6 (myc “on”) cells were maintained in growth media (RPMI-1640, 10% FBS, 2 mM glutamine, 100 units/ml Penicillin and 100 μg/ml streptomycin) at 37° C. with 5% CO2. For compound assay, P493-6 cells were plated in 96-well V-bottom plates on the day of compound addition in 50 μl of growth media at a cell density of 200,000 cells/ml (10,000 cells/well). Compounds were serially diluted in 100% DMSO at 200-times the final concentration. Compounds were diluted 100-fold into growth media and then 50 μl of this mixture was added to cell plates making the final concentration of DMSO 0.5%. Cells were incubated with compound for 72 hrs at 37° C. with 5% CO2 and analyzed for antiproliferative effects either by Cell Titer Glo (Promega) or FACS analysis using the Viacount (Millipore) kit on the Guava instrument.

A short description of series [1]: Pharmacokinetic studies in mice. Type of series: in vivo. The conditions noted are these: female, CD-1, mouse, plasma, po, 50 mg/kg, 50 mg/kg oral. As to the method:
For PK studies performed in mice, female CD-1 mice, age 5-8 weeks, were dosed orally by gavage (10 mL/kg volume) with test compounds. At pre-determined time-points (e.g. 1, 3, and 6 hrs) post-dosing, groups of three mice were sacrificed by CO2 inhalation and blood collected via cardiac puncture. Blood samples were placed into K2 EDTA coated tubes and kept on ice. Samples were centrifuged at 2000×g for 10 minutes at 4° C. and plasma isolated. Plasma was stored at ˜70° C. until bioanalytical analysis.
The plasma samples were analyzed using Liquid chromatography tandem mass spectrometry (LC/MS/MS) methods. Frozen plasma samples were thawed on ice or room temperature. Aliquotes of study plasma samples and calibration samples prepared in the same matrix as the study samples were quenched in an organic solvent (methanol, acetonitrole or DMF) containing an internal standard. The mixtures were then centrifuged and filtered and the filtrates were injected to an LC/MS/MS system to determine concentrations of test compounds.

Setting [2] is: Eudragit L100-55 solid dispersion, Suspension.

Consider `O=C(Cc1ccccc1)Nc1ccc(CCCCc2nnc(NC(=O)Cc3ccccc3)s2)nn1` [Compound 295], for which the “Significant Efflux” value in the series on Caco-2 cell monolayers is “Yes (efflux ratios being significant when greater than or equal to 3 when the Papp (B→A) was greater than or equal to 1×10^−6 cm/s)”. In addition, the half-inhibitory concentration (IC50) in the series on P493-6 (myc "on") cells (P493-6, 72 h) is 39 nM. Also, in series [1] (setting [2]), the Cmax was 20 nM and the time to peak (Tmax) came out at 6 h.

As for `O=C(Cc1ccccc1)Nc1ccc(CCCCc2nnc(NC(=O)C(O)c3cccc(Cl)c3)s2)nn1` (centres unmarked) [Compound 318], the “Significant Efflux” value in the series on Caco-2 cell monolayers was “Yes (efflux ratios being significant when greater than or equal to 3 when the Papp (B→A) was greater than or equal to 1×10^−6 cm/s)”. The IC50 in the series on P493-6 (myc "on") cells (P493-6, 72 h) was 17 nM. The Cmax was found to be 10 nM in series [1] (0.5% CMC/0.1% PS80, Suspension) and 80 nM in series [1] (Capryol PGMC, Suspension). The Tmax in series [1] (0.5% CMC/0.1% PS80, Suspension) came to 1 h; in series [1] (Capryol PGMC, Suspension) it was 3 h.

Regarding `CC(C)(C)OC(=O)NCc1cccc(CC(=O)Nc2nnc(CCCCc3ccc(NC(=O)Cc4ccccc4)nn3)s2)c1` [Compound 339], the “Significant Efflux” value in the series on Caco-2 cell monolayers is given as “Yes (efflux ratios being significant when greater than or equal to 3 when the Papp (B→A) was greater than or equal to 1×10^−6 cm/s)”. In addition, in the series on P493-6 (myc "on") cells (P493-6, 72 h), the 50% inhibitory concentration (IC50) worked out at 9 nM.

Regarding `O=C(Cc1ccccc1)Nc1ccc(CCCCc2nnc(NC(=O)Cc3ccccn3)s2)nn1` [Compound 354], in the series on Caco-2 cell monolayers, the “Significant Efflux” value is reported as “Yes (efflux ratios being significant when greater than or equal to 3 when the Papp (B→A) was greater than or equal to 1×10^−6 cm/s)”. Further, the IC50 in the series with P493-6 (myc "on") cells (P493-6, 72 h) amounted to 47 nM.

In the case of `CC(C(=O)Nc1ccc(CCCCc2nnc(NC(=O)Cc3cccc(CNC(=O)OC(C)(C)C)c3)s2)nn1)c1ccccc1` (centres unmarked) [Compound 436], in the series with Caco-2 cell monolayers, the “Significant Efflux” value is recorded as “Yes (efflux ratios being significant when greater than or equal to 3 when the Papp (B→A) was greater than or equal to 1×10^−6 cm/s)”. The concentration for half-maximal inhibition (IC50) with P493-6 (myc "on") cells (P493-6, 72 h) is 10 nM.

As for `O=C(Cc1cccc(OC(F)(F)F)c1)Nc1ccc(CCCCc2nnc(NC(=O)C(O)c3cccc(Cl)c3)s2)nn1` (centres unmarked) [Compound 447], the “Significant Efflux” value with Caco-2 cell monolayers is listed as “Yes (efflux ratios being significant when greater than or equal to 3 when the Papp (B→A) was greater than or equal to 1×10^−6 cm/s)”. For the same compound, the IC50 in the series on P493-6 (myc "on") cells (P493-6, 72 h) was 16 nM. In series [1] (2% NMP/98% Gelucire, Solution), the concentration peaked (Cmax) at 1130 nM and the Tmax came out at 1 h.

In the case of `O=C(Cc1ccccc1Cl)Nc1ccc(CCCCc2nnc(NC(=O)Cc3ccccc3F)s2)nn1` [Compound 533], the “Significant Efflux” value with Caco-2 cell monolayers is recorded as “Yes (efflux ratios being significant when greater than or equal to 3 when the Papp (B→A) was greater than or equal to 1×10^−6 cm/s)”. In addition, the IC50 in the series with P493-6 (myc "on") cells (P493-6, 72 h) amounted to 41 nM.

`CC(C(=O)Nc1nnc(CCCCc2ccc(NC(=O)Cc3ccccc3)nn2)s1)c1ccccc1` (centres unmarked) [Compound 616]: the “Significant Efflux” value with Caco-2 cell monolayers is reported as “Yes (efflux ratios being significant when greater than or equal to 3 when the Papp (B→A) was greater than or equal to 1×10^−6 cm/s)”. Moreover, the IC50 in the series on P493-6 (myc "on") cells (P493-6, 72 h) is 130 nM.

For the compound `O=C(Cc1cccc(OC(F)(F)F)c1)Nc1ccc(CCCCc2nnc(NC(=O)Cc3cccc(OC(F)(F)F)c3)s2)nn1` [Compound 660], the “Significant Efflux” value in the series with Caco-2 cell monolayers was “Yes (efflux ratios being significant when greater than or equal to 3 when the Papp (B→A) was greater than or equal to 1×10^−6 cm/s)”. The IC50 in the series on P493-6 (myc "on") cells (P493-6, 72 h) stood at 37 nM.

In the case of `O=C(Cc1cccc(OC(F)(F)F)c1)Nc1ccc(CCCCc2nnc(NC(=O)Cc3cccc(F)c3)s2)nn1` [Compound 679], the “Significant Efflux” value with Caco-2 cell monolayers is reported as “No”. In the series on P493-6 (myc "on") cells (P493-6, 72 h), the IC50 amounted to 36 nM.

With `O=C(Cc1cccc(OC(F)(F)F)c1)Nc1ccc(CCCCc2nnc(NC(=O)[C@@H](O)c3ccccc3)s2)nn1` [Compound 703], the “Significant Efflux” value in the series with Caco-2 cell monolayers is recorded as “Yes (efflux ratios being significant when greater than or equal to 3 when the Papp (B→A) was greater than or equal to 1×10^−6 cm/s)”. Besides, the IC50 in the series on P493-6 (myc "on") cells (P493-6, 72 h) worked out at 12 nM.

Regarding `O=C(Cc1cccc(OC(F)(F)F)c1)Nc1ccc(CCCCc2nnc(NC(=O)[C@H](O)c3ccccc3)s2)nn1` [Compound 705], the “Significant Efflux” value with Caco-2 cell monolayers is reported as “Yes (efflux ratios being significant when greater than or equal to 3 when the Papp (B→A) was greater than or equal to 1×10^−6 cm/s)”. The IC50 in the series with P493-6 (myc "on") cells (P493-6, 72 h) was found to be 32 nM.

As to `O=C(Cc1cccc(OC(F)(F)F)c1)Nc1ccc(CCCCc2nnc(NC(=O)CN3C(=O)CCC3=O)s2)nn1` [Compound 708], the IC50 in the series with P493-6 (myc "on") cells (P493-6, 72 h) turned out to be 2800 nM.

`O=C(Cc1cccc(OC(F)(F)F)c1)Nc1ccc(CCCCc2nnc(NC(=O)CN3CCCC3=O)s2)nn1` [Compound 709]: the IC50 with P493-6 (myc "on") cells (P493-6, 72 h) turned out to be 140 nM.

In the case of `O=C(Cc1ccccn1)Nc1nnc(CCCCc2ccc(NC(=O)C(O)c3ccccc3)nn2)s1` (centres unmarked) [Compound 715], the IC50 in the series with P493-6 (myc "on") cells (P493-6, 72 h) was determined as 390 nM.

With `O=C(Cc1cccc(OC(F)(F)F)c1)Nc1ccc(CCCCc2nnc(NC(=O)Cc3cccc[n+]3[O-])s2)nn1` [Compound 716], in the series with P493-6 (myc "on") cells (P493-6, 72 h), the IC50 stood at 180 nM.

On to `COc1ccc(OC(F)(F)F)cc1CC(=O)Nc1ccc(CCCCc2nnc(NC(=O)Cc3ccccn3)s2)nn1` [Compound 717], for which the half-inhibitory concentration (IC50) in the series with P493-6 (myc "on") cells (P493-6, 72 h) came to 190 nM.

For the compound `O=C(Cc1cc(OC(F)(F)F)ccc1O)Nc1ccc(CCCCc2nnc(NC(=O)Cc3ccccn3)s2)nn1` [Compound 718], the IC50 with P493-6 (myc "on") cells (P493-6, 72 h) is 15 nM.

Take `O=C(Cc1ccc(F)c(OC(F)(F)F)c1)Nc1ccc(CCCCc2nnc(NC(=O)Cc3ccccn3)s2)nn1` [Compound 719]: in the series with P493-6 (myc "on") cells (P493-6, 72 h), the 50% inhibitory concentration (IC50) is 10 nM.

Turning to `O=C(Cc1cc(OC(F)(F)F)ccc1F)Nc1ccc(CCCCc2nnc(NC(=O)Cc3ccccn3)s2)nn1` [Compound 720], the IC50 in the series with P493-6 (myc "on") cells (P493-6, 72 h) was 920 nM.

As for `O=C(Cc1ccc(Cl)c(OC(F)(F)F)c1)Nc1ccc(CCCCc2nnc(NC(=O)Cc3ccccn3)s2)nn1` [Compound 721], in the series on P493-6 (myc "on") cells (P493-6, 72 h), the IC50 worked out at 22 nM.

With `COc1ccc(CC(=O)Nc2ccc(CCCCc3nnc(NC(=O)Cc4ccccn4)s3)nn2)cc1OC(F)(F)F` [Compound 722], the IC50 with P493-6 (myc "on") cells (P493-6, 72 h) came out at 16 nM.

Regarding `O=C(Cc1ccc(O)c(OC(F)(F)F)c1)Nc1ccc(CCCCc2nnc(NC(=O)Cc3ccccn3)s2)nn1` [Compound 723], the IC50 with P493-6 (myc "on") cells (P493-6, 72 h) came out at 20 nM.

With `CC(C)(C)OC(=O)Nc1cccc(CC(=O)Nc2nnc(CCCCc3ccc(NC(=O)Cc4cccc(OC(F)(F)F)c4)nn3)s2)n1` [Compound 724], the IC50 in the series with P493-6 (myc "on") cells (P493-6, 72 h) is 34 nM.

Turning to `Nc1cccc(CC(=O)Nc2nnc(CCCCc3ccc(NC(=O)Cc4cccc(OC(F)(F)F)c4)nn3)s2)n1` [Compound 725], the IC50 in the series on P493-6 (myc "on") cells (P493-6, 72 h) turned out to be 150 nM.

Consider `[2H]C([2H])(CCc1nnc(N)s1)C([2H])([2H])c1ccc(NC(=O)Cc2cccc(OC(F)(F)F)c2)nn1` [Compound 726], for which the IC50 in the series with P493-6 (myc "on") cells (P493-6, 72 h) came out at 610 nM.

`[2H]C([2H])(CCc1nnc(NC(=O)Cc2ccccn2)s1)C([2H])([2H])c1ccc(NC(=O)Cc2cccc(OC(F)(F)F)c2)nn1` [Compound 727]: the IC50 in the series with P493-6 (myc "on") cells (72 h) came to 12 nM.

For `Cc1cccc(CC(=O)Nc2nnc(CCCCc3ccc(NC(=O)Cc4cccc(OC(F)(F)F)c4)nn3)s2)n1` [Compound 728], in the series on P493-6 (myc "on") cells (P493-6, 72 h), the half-maximal inhibitory concentration (IC50) was found to be 18 nM.

In the case of `COc1cc(CC(=O)Nc2ccc(CCCCc3nnc(NC(=O)Cc4ccccn4)s3)nn2)cc(OC(F)(F)F)c1` [Compound 729], in the series with P493-6 (myc "on") cells (P493-6, 72 h), the IC50 is 26 nM.

On to `O=C(Cc1cc(O)cc(OC(F)(F)F)c1)Nc1ccc(CCCCc2nnc(NC(=O)Cc3ccccn3)s2)nn1` [Compound 730], for which the IC50 in the series on P493-6 (myc "on") cells (P493-6, 72 h) was 25 nM.
